This assay addresses Protein kinase C alpha type (Homo sapiens) (UniProt P17252). Kind of assay: Relative binding affinity for Protein kinase C alpha (Inactive).

Structures are written as SMILES. The source made the active and inactive calls. The rule behind the calls is not given here.

Turning to `CCCCCCCCCCCCCCCC(=O)OC[C@@H](CO)OC(=O)CCCCCCCCCCCCCCC`, the Relative binding affinity entry was “inactive”.

(Values after ChEMBL document CHEMBL1129354, “Molecular modeling and site-directed mutagenesis studies of a phorbol ester-binding site in protein kinase C” (J Med Chem, 1996).)
